Tested on: C. elegans
Assay: Reverse-Northern dot-blot analysis of steady-state mRNA levels after cadmium exposure
Assay type: in vivo, Caenorhabditis elegans
Details: for Fold-change in mRNA levels following cadmium exposure, DDRT1: clone DDRT1; for Fold-change in mRNA levels following cadmium exposure, DDRT2: clone DDRT2; for Fold-change in mRNA levels following cadmium exposure, DDRT3: clone DDRT3; for Fold-change in mRNA levels following cadmium exposure, DDRT4: clone DDRT4; for Fold-change in mRNA levels following cadmium exposure, DDRT5: clone DDRT5; for Fold-change in mRNA levels following cadmium exposure, DDRT6: clone DDRT6; for Fold-change in mRNA levels following cadmium exposure, DDRT7: clone DDRT7; for Fold-change in mRNA levels following cadmium exposure, DDRT9: clone DDRT9; for Fold-change in mRNA levels following cadmium exposure, DDRT10: clone DDRT10; for Fold-change in mRNA levels following cadmium exposure, DDRT12: clone DDRT12; for Fold-change in mRNA levels following cadmium exposure, DDRT15: clone DDRT15; for Fold-change in mRNA levels following cadmium exposure, DDRT16: clone DDRT16; for Fold-change in mRNA levels following cadmium exposure, DDRT17: clone DDRT17; for Fold-change in mRNA levels following cadmium exposure, DDRT18: clone DDRT18; for Fold-change in mRNA levels following cadmium exposure, DDRT19: clone DDRT19; for Fold-change in mRNA levels following cadmium exposure, DDRT20: clone DDRT20; for Fold-change in mRNA levels following cadmium exposure, DDRT21D: clone DDRT21D; for Fold-change in mRNA levels following cadmium exposure, DDRT21U: clone DDRT21U; for Fold-change in mRNA levels following cadmium exposure, DDRT22: clone DDRT22
Protocol: Growth and isolation of C. elegans—The N2 strain of C. elegans was grown in liquid S medium (0.1M NaCl, 50 mM potassium phosphate, pH 6.0, 5 μg/ml cholesterol, 10 mM potassium citrate, 3 mM CaCl2, 3 mM MgCl2, 50 μM EDTA, 25 μM FeSO4, 10 μM MnCl2, 10 μM ZnSO4 and 1 μM CuSO4) using E. coli OP50 as a food source (Brenner, S. (1974) Genetics 77, 71-94). In experiments where nematodes were exposed to cadmium, the medium was supplemented with 100 μM CdCl2 (Freedman, J. H. et al. (1993) J. Biol. Chem. 268, 2554-2564). C. elegans were grown in the presence of metal for 8 h or 24 h at ˜20° C. Nematodes were then collected following centrifugation at 800×g for 5 min. Pellets were suspended in 5 mM NaCl containing 35% sucrose (final concentration) and viable nematodes were collected from the top of the solution following centrifugation at 1000×g for 5 min at 4° C. Nematodes were then washed three times by suspension in M9 buffer (22 mM KH2PO4, 42 mM Na2HPO4, 85 mM NaCl, 1 mM MgSO4) followed by sedimentation at 800×g. Washed nematode pellets were finally suspended in a small volume of M9 buffer, rapidly frozen in liquid nitrogen and stored at −80° C.
RNA isolation—Total RNA was isolated from mix-stage populations of C. elegans exposed to 100 μM CdCl2 for 8 h and 24 h and control, non-exposed nematodes. Frozen worms were first ground into a fine powder using a liquid nitrogen-cooled mortar and pestle. Powdered C. elegans (200 mg) were then homogenized in 2 ml of TRIzol (GIBCO/BRL). RNA was then collected from the aqueous phase following the addition of chloroform, precipitated by adding isopropyl alcohol and then air-dried. The dried RNA pellet was then dissolved in diethyl pyrocarbonate (DEPC)-treated water. For some experiments, poly(A^+) RNA was subsequently isolated using the Poly(A) Tract System following manufacturer's instructions (Promega).
Reverse-Northern dot-blot analysis—Changes in the steady-state levels of differentially expressed mRNAs in C. elegans following cadmium-exposure were also determined by reverse-Northern dot-blot analysis by the modified procedure of Zhang et al. (Cummins, C. et al. (1988) Mol. Cell. Biol 8, 5334-5349). Briefly, differentially expressed cDNAs that were previously cloned into pGEM-T were amplified using primers that anneal to the T7 and SP6 RNA polymerase binding sites, which flank the cDNA insert. cDNAs were amplified and subsequently purified using a PCR-spin column (QIAGEN). Approximately 100 ng of each amplified cDNA were denatured by mixing with 0.1N NaOH (final concentration) and incubating at 100° C. for 5 min. The solution was neutralized following the addition of 3×SSC (final concentration) and then the volume adjusted to 700 μl with dH2O. 200-μl of each sample was applied to one of three Nytran membranes in a Bio-Dot microfiltration apparatus (BioRad). Membranes were then baked for 30 min at 80° C. under vacuum. As positive and loading controls 100 ng of mtl-1 cDNA and myosin light chain DNA were also applied to each membrane, respectively.
Three pools of single-stranded ^32P-labeled cDNA probes were prepared from poly(A^+) RNA isolated from control, 8 h and 24 h cadmium-treated nematodes. cDNAs were generated from a mixture of mRNAs in a 25 μl reverse transcriptase reactions which contained 2 μg poly(A^+) RNA, 1 μg oligo (dT)18 primer, reverse transcriptase buffer, 800 μM DATP, dGTP and dTTP, 4.5 μM dCTP, 100 μCi [α-^32P]dCTP (3000 Ci/mmol), 20 units RNase inhibitor and 200 units Moloney murine leukemia virus reverse transcriptase. The reaction mixture was incubated at 37° C. for 1 h, then at 95° C. for 5 min to terminate the reaction. Unincorporated nucleotides were separated from the labeled cDNAs by using a G-25 spin column (Boehringer Mannheim). Equal amounts (5×10^6 cpm/ml) of each radioactive cDNA mixture were heat-denatured and then hybridized separately to one of the three membranes at 42° C. for 16 h in hybridization buffer. […]

[1] = cadmium exposure, time not stated
[2] = 8 hours, 100 μM CdCl2, relative to non-exposed, normalized to myosin light chain mRNA
[3] = 24 hours, 100 μM CdCl2, relative to non-exposed, normalized to myosin light chain mRNA

## [Cl][Cd][Cl] [cadmium, CdCl2]
24-h exposure
  increase in level of expression, forty-six of the clones: up to 6 fold
After cadmium treatment, loading control on dot blot
  level of expression of myosin light-chain mRNA: remained constant
After cadmium treatment, positive control on dot blot, time not stated
  induction of mtl-1 mRNA: ~5 fold
[1]
  increase in the level of mRNA DDRT30 (collagen col-36): 3 fold
  increase in the level of mRNA DDRT33D (predicted cuticle collagen): 3 fold
[2]
  Fold-change in mRNA levels following cadmium exposure, DDRT1: 2.2 fold
  Fold-change in mRNA levels following cadmium exposure, DDRT2: 3.1 fold
  Fold-change in mRNA levels following cadmium exposure, DDRT3: 2.0 fold
  Fold-change in mRNA levels following cadmium exposure, DDRT4: 2.5 fold
  Fold-change in mRNA levels following cadmium exposure, DDRT5: 3.2 fold
  Fold-change in mRNA levels following cadmium exposure, DDRT6: 4.7 fold
  Fold-change in mRNA levels following cadmium exposure, DDRT7: 3.6 fold
  Fold-change in mRNA levels following cadmium exposure, DDRT9: 3.5 fold
  Fold-change in mRNA levels following cadmium exposure, DDRT10: 2.7 fold
  Fold-change in mRNA levels following cadmium exposure, DDRT12: 3.0 fold
  Fold-change in mRNA levels following cadmium exposure, DDRT15: 2.8 fold
  Fold-change in mRNA levels following cadmium exposure, DDRT16: 4.3 fold
  Fold-change in mRNA levels following cadmium exposure, DDRT17: 3.7 fold
  Fold-change in mRNA levels following cadmium exposure, DDRT18: 2.2 fold
  Fold-change in mRNA levels following cadmium exposure, DDRT19: 2.7 fold
  Fold-change in mRNA levels following cadmium exposure, DDRT20: 2.6 fold
  Fold-change in mRNA levels following cadmium exposure, DDRT21D: 2.2 fold
  Fold-change in mRNA levels following cadmium exposure, DDRT21U: 2.2 fold
  Fold-change in mRNA levels following cadmium exposure, DDRT22: 2.5 fold
[3]
  Fold-change in mRNA levels following cadmium exposure, DDRT1: 3.2 fold
  Fold-change in mRNA levels following cadmium exposure, DDRT2: 3.9 fold
  Fold-change in mRNA levels following cadmium exposure, DDRT3: 2.4 fold
  Fold-change in mRNA levels following cadmium exposure, DDRT4: 2.8 fold
  Fold-change in mRNA levels following cadmium exposure, DDRT5: 3.9 fold
  Fold-change in mRNA levels following cadmium exposure, DDRT6: 5.0 fold
  Fold-change in mRNA levels following cadmium exposure, DDRT7: 4.0 fold
  Fold-change in mRNA levels following cadmium exposure, DDRT9: 2.8 fold
  Fold-change in mRNA levels following cadmium exposure, DDRT10: 2.5 fold
  Fold-change in mRNA levels following cadmium exposure, DDRT12: 3.2 fold
  Fold-change in mRNA levels following cadmium exposure, DDRT15: 3.1 fold
  Fold-change in mRNA levels following cadmium exposure, DDRT16: 4.9 fold
  Fold-change in mRNA levels following cadmium exposure, DDRT17: 5.7 fold
  Fold-change in mRNA levels following cadmium exposure, DDRT18: 2.9 fold
  Fold-change in mRNA levels following cadmium exposure, DDRT19: 3.9 fold
  Fold-change in mRNA levels following cadmium exposure, DDRT20: 2.8 fold
  Fold-change in mRNA levels following cadmium exposure, DDRT21D: 4.2 fold
  Fold-change in mRNA levels following cadmium exposure, DDRT21U: 2.6 fold
  Fold-change in mRNA levels following cadmium exposure, DDRT22: 3.3 fold
Clone DDRT23, 8 hours, 100 μM CdCl2, relative to non-exposed, normalized to myosin light chain mRNA
  Fold-change in mRNA levels following cadmium exposure, DDRT23: 3.3 fold

Reference: patent US6916915B1, “Stressor regulated genes” (Duke University, priority 1998, dated 2005)
